Reference: patent publication US20240261267A1, “METHODS FOR TREATING MULTIPLE SCLEROSIS” (Vanda Pharmaceuticals Inc., priority 2021, published 2024)

System: primary mouse OPCs
Assay: agarose drop migration assay
Format: cell-based
Conditions: any of the concentrations tested (0.3 nM to 3000 nM); after 5 days
Method: The effects of ponesimod, a selective S1P1 receptor agonist, and A971432, a selective S1P5 receptor agonist, on oligodendrocyte precursor cell (OPC) migration and differentiation were evaluated. Nine concentrations were tested (logarithmic dilutions ranging from 0.3 nM to 3000 nM, n=6 per concentration). Fingolimod phosphate (P-FTY720, 3000 nM, n=6) was included as a positive control, 0.1% DMSO was included (min.one/plate) as a negative control. Primary mouse OPCs were harvested on postnatal day 0 or 1 and mixed glia cultures were maintained for 14 days. Primary OPCs were then purified using the shake-off method, and used for either a migration assay, or a differentiation assay, as detailed below. To harvest primary mouse OPCs, cortices are isolated from mouse pups on postnatal day 0 or 1 and placed in ice-cold Dulbecco's Modified Eagle Medium (DMEM) (Sigma Aldrich, Overijse, BE). The cortices are homogenized and centrifuged for 5 minutes at 300 G. The supernatant is removed, and a papain solution is added for 30 minutes (125 uL DMEM solution per brain containing 20 units/ml papain and 40 μg/ml DNase, at 37 degrees). Digestion is inactivated by adding 9 ml cold DMEM. The solution is then centrifuged for 5 minutes at […]. The supernatant is carefully removed, and the pellet is resuspended in 2-5 ml culture medium (DMEM with 10% fetal calf serum (Biowest, Nuaillé, FR) and 1% pen/strep (Sigma Aldrich, Overijse, BE)). […] Cell suspension is divided over PLL (Sigma Aldrich, Overijse, BE)-coated flasks (2 brains per flask) and DMEM is added to a final volume of 10 ml. DMEM is replaced on day 4, 7, and 11. On day 7 and 11, insulin (Sigma Aldrich, Overijse, BE) is added to the medium (5μg/ml). On day 14, OPCs are separated from astrocytes by the shake-off method: flasks are placed on a shaker for 45 minutes at 75 rpm (37 degrees). […] The extent of cell migration is then measured after 5 days using Incucyte imaging analysis and fluorescent endpoint staining. For each well, the 15-20 cells that migrated the furthest away from the agarose drop are measured and averaged. […]

SMILES: O=C(O)C1CN(Cc2ccc(OCc3ccc(Cl)c(Cl)c3)cc2)C1 [A97]
- migration distance: did not affect migration distance

SMILES: CCC/N=C1\S/C(=C\c2ccc(OC[C@H](O)CO)c(Cl)c2)C(=O)N1c1ccccc1C [ponesimod, (R)-5-[3-chloro-4-(2,3-dihydroxy-propoxy)-benz[Z]ylidene]-2-([Z]-propylimino)-3-o-tolyl-thiazolidin-4-one]
- migration distance: did not affect migration distance
